Source: patent US20230265083A1, “Heterocycle CDK Inhibitors And Their Use Thereof” (Prelude Therapeutics Incorporated, priority 2020, published 2023)

What was measured:
CDK2/Cyclin A2 = biological target: T1, CDK2/Cyclin A2 (Homo sapiens, UniProt P24941); experiment: CDK2/CyclinA2 Enzymatic Activity Assay (TR-FRET); type: biochemical; details: ATP 1 mM, recombinant CDK2/Cyclin A2 1 nM, read-out: CDK2_A2 IC50
T1 construct: purchased ProQinase; host or cells: insect cell
Procedure: CDK2/CyclinA2 Enzymatic Activity Assay
(§1) The inhibitory activity of compounds was evaluated in vitro using TR-FRET assay with white 384-well low volume microplate (Greiner Bio-One). CDK2/Cyclin A2 catalyzed phosphorylation of peptides in the presence and absence of compounds was measured and used in IC50 determination. Recombinant protein complex CDK2/Cyclin A2, expressed from insect cell, was purchased from ProQinase. Testing compounds were dissolved in DMSO at 1 mM and tested in 9-dose IC50 mode. The reaction mixture was prepared by mixing CDK2/CyclinA2 (1 nM final), ULight-4E-BP1 (50 nM final, Perkinelmer, TRF0128-D), and ATP (1 mM final) in assay buffer (20 mM of HEPES pH 7.4, 1 mM of EGTA, 0.05% BSA, 0.005% Tween 20, and 1 mM TCEP). The compound of interest in DMSO was added to each well in 3-fold serial dilution by the dispenser (TECAN D300E) to make a 9.9 μL of the reaction mixture. After 20 minutes preincubation at room temperature, 0.1 μL MgCl2 (10 mM final) was added to initiate the reaction. Following a 45 minutes incubation at 37° C., the reaction was stopped by addition of 2 μL of quenching buffer consisting of Lance detection buffer (Perkinelmer CR97-100C), LANCE Ultra Europium-anti-P-4E-BP1 (Perkinelmer, TRF0216-D), EDTA, and incubate at room temperature for additional 60 minutes in the dark. The reaction signal was measured by Envision multimode plate reader (PerkinElmer, 2102-0010). IC50 values were determined by fitting the data to the standard 4 parameters with Hill Slope using GraphPad Prism software.

CDK4/Cyclin D1 = biological target: T2, CDK4/Cyclin D1 (Homo sapiens, UniProt P11802); experiment: CDK4/CyclinD1 Enzymatic Activity Assay (TR-FRET); type: biochemical; details: ATP 2 mM, recombinant CDK4/Cyclin D1 1 nM, read-out: CDK4_D1 IC50
T2 construct: purchased ProQinase; host or cells: insect cell
Procedure: CDK4/CyclinD1 Enzymatic Activity Assay
The inhibitory activity of compounds was evaluated in vitro using TR-FRET assay with white 384-well low volume microplate (Greiner Bio-One). CDK4/Cyclin D1 catalyzed phosphorylation of peptides in the presence and absence of compounds was measured and used in IC50 determination. Recombinant protein complex CDK4/Cyclin D1, expressed from insect cell, was purchased from ProQinase. Testing compounds were dissolved in DMSO at 1 mM and tested in 9-dose IC50 mode. The reaction mixture was prepared by mixing CDK4/CyclinD1 (1 nM final), ULight-4E-BP1 (100 nM final, Perkinelmer, TRF0128-D), and ATP (2 mM final) in assay buffer (20 mM of HEPES pH 7.4, 1 mM of EGTA, 0.05% BSA, 0.005% Tween 20, and 1 mM TCEP). The compound of interest in DMSO was added to each well in 3-fold serial dilution by the dispenser (TECAN D300E) to make a 9.9 μL of the reaction mixture. After 20 minutes of preincubation at room temperature, 0.1 μL MgCl2 (10 mM final) was added to initiate the reaction. Following a 45 minutes incubation at 37° C., the reaction was stopped by the addition of 2 μL of quenching buffer consisting of Lance detection buffer (Perkinelmer CR97-100C), LANCE Ultra Europium-anti-P-4E-BP1 (Perkinelmer, TRF0216-D), EDTA, and incubate at room temperature for additional 60 minutes in the dark. The reaction signal was measured by Envision multimode plate reader (PerkinElmer, 2102-0010). IC50 values were determined by fitting the data to the standard 4 parameters with Hill Slope using GraphPad Prism software.

CDK9/Cyclin T1 = biological target: T3, CDK9/Cyclin T1 (Homo sapiens, UniProt P50750); experiment: CDK9/CyclinT1 Enzymatic Activity Assay (TR-FRET); type: biochemical; details: ATP 1 mM, recombinant CDK9/Cyclin T1 1 nM, read-out: CDK9_T1 IC50
T3 construct: purchased ProQinase; host or cells: insect cell
Procedure: CDK9/CyclinT1 Enzymatic Activity Assay
as §1, with “(Greiner Bio-One). CDK9/Cyclin T1 catalyzed phosphorylation” for “(Greiner Bio-One). CDK2/Cyclin A2 catalyzed phosphorylation”, “protein complex CDK9/Cyclin T1, expressed from” for “protein complex CDK2/Cyclin A2, expressed from”, “by mixing CDK9/CyclinT1 (1 nM” for “by mixing CDK2/CyclinA2 (1 nM”, “20 minutes of preincubation at” for “20 minutes preincubation at”, “stopped by the addition of” for “stopped by addition of”

H929 cells = experiment: CellTiter-Glo Protocol (Proliferation); type: cell-based; details: Homo sapiens, NCI-H929, 24 hours, read-out: PROLIFERATION_CTG_H929 IC50
Procedure: CellTiter-Glo® Protocol (Proliferation)
Dispense 10 μL aliquot of prepared H929 cells (1:1 ratio of cells: Trypan Blue (#1450013, Bio-Rad)) onto cell counting slide (#145-0011, Bio-Rad) and obtain cell density and cell viability using a cell counter (TC20, Bio-Rad). Remove appropriate volume of resuspended cells from culture flask to accommodate 4000 cells/well at 10 μL/well. Transfer H929 cells to 50 mL conical (#430290, Corning). Spin down at 1000 rpm for 5 min. using a tabletop centrifuge (SPINCHRON 15, Beckman). Discard supernatant and resuspend cell pellet in modified RPMI 1640 (#10-040-CV, Corning) cell culture media containing 10% FBS (F2422-500ML, Sigma), sodium pyruvate (100 mM) (#25-000-CL, Corning), HEPES buffer (1M) (#25-060-CL, Corning) and glucose (200 g/L) (A24940-01, Gibco) to a cell density of 400,000 cells/mL. Dispense 10 μL of resuspended H929 cells per well in 384-well small volume TC treated plate (#784080, Greiner Bio-one) using standard cassette (#50950372, Thermo Scientific) on Multidrop Combi (#5840310, Thermo Scientific) in laminar flow cabinet. Dispense compounds onto plates using a digital liquid dispenser (D300E, Tecan). Incubate plates in humidified tissue culture incubator at 37° C. for 24 hours. Add 10 μL of prepared CellTiTer-Glo® detection buffer (G7570, Promega) to each well of 384-well plate using small tube cassette (#24073295, Thermo Scientific) on Combi multi-drop, incubate at RT for 30-60 min. Read plates with a microplate reader (PheraStar, BMG Labtech) using 384 well luminescence mode. See Table B (Proliferation_CTG_H929).

T3 sequence (P50750 whole entry): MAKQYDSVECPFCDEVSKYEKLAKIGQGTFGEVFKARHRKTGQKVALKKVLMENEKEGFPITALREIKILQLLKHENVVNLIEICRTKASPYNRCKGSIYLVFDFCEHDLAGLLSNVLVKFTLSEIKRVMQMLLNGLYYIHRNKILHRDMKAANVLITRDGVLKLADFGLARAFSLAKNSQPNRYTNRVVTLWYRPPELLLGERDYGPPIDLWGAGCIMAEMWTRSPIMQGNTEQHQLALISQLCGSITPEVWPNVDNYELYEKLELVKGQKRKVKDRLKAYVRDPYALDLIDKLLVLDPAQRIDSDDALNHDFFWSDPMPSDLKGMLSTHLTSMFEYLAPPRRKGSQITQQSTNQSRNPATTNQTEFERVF
T3 sequence (O60563 whole entry partner): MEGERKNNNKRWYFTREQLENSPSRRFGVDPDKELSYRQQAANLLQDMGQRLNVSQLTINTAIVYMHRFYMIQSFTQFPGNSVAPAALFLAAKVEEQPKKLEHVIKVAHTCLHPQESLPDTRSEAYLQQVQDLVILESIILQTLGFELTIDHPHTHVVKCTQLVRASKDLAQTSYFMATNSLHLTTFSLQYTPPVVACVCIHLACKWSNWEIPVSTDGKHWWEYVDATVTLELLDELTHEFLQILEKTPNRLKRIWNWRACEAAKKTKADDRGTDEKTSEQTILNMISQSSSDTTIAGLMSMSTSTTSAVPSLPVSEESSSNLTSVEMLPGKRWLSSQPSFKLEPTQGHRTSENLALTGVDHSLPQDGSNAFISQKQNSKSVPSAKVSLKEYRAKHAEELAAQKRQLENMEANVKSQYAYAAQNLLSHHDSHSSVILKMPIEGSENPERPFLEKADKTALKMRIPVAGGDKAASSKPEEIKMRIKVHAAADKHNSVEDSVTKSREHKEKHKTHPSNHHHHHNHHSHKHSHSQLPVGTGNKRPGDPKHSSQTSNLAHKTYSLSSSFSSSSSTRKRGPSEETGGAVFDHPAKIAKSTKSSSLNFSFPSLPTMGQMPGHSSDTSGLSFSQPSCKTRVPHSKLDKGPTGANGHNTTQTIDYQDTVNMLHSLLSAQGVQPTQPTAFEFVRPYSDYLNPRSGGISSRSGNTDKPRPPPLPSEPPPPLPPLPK
T2 sequence (P11802 whole entry): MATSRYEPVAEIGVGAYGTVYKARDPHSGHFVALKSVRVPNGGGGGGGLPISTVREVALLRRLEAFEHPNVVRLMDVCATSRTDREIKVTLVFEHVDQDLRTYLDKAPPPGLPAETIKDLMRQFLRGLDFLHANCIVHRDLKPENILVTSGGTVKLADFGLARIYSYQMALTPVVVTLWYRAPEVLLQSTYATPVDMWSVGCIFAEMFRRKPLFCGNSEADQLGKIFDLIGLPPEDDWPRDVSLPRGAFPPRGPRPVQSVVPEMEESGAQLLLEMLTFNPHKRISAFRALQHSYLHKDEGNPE
T2 sequence (P24385 whole entry partner): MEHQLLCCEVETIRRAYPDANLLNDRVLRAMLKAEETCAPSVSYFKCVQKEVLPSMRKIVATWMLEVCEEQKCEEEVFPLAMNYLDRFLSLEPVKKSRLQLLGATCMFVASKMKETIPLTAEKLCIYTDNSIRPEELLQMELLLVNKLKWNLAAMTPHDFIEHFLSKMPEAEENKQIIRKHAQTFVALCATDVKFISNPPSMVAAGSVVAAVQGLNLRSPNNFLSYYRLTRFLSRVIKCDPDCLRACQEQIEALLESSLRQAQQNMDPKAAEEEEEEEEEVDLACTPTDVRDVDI

SMILES	IC50 (CDK2/Cyclin A2) [nM]	IC50 (CDK4/Cyclin D1) [nM]	IC50 (CDK9/Cyclin T1) [nM]	IC50 (H929 cells) [nM]
Cc1cnc(NC(=O)[C@H]2CCC[C@@H](NC(=O)CC#N)C2)cc1-c1cccc2c1OCC(C)(C)N2 [Example 7, (1S,3R)-3-(2-cyanoacetamido)-N-(4-(3,3-dimethyl-3,4-dihydro-2H-benzo[b][1,4]oxazin-8-yl)-5-methylpyridin-2-yl)cyclohexane-1-carboxamide]	> 1000	> 1000	20 to 200	200 to 1000
CC(=O)N[C@@H]1CCC[C@H](C(=O)Nc2cc(-c3cccc4c3CC(C)(C)N4)c(Cl)cn2)C1 [Example 5, (1S,3R)-3-acetamido-N-(5-chloro-4-(2,2-dimethylindolin-4-yl)pyridin-2-yl)cyclohexane-1-carboxamide]	> 1000	20 to 200	< 20	20 to 200
